# Test results reported in patent publication US9352013B2, “Uses of bremelanotide in therapy for female sexual dysfunction” (Palatin Technologies, Inc., priority 2012, dated 2016).
# Like-named read-outs stand apart in the source and are kept apart here.
# Columns and labels:
# [1] = tested on: premenopausal females with FSAD and/or HSDD; experiment: Example 1: placebo-controlled at-home trial of subcutaneous bremelanotide, efficacy (SSEs, FSFI, FSDS-DAO); assay type: in vivo, human
# Description: A multi-centered, placebo-controlled, randomized, parallel group trial with fixed dose levels and designed to identify appropriate doses of bremelanotide administered by subcutaneous injection in premenopausal females with FSAD and/or HSDD, under the conditions of home use, was conducted. Subjects received a single dose of placebo (subject-blinded) in-clinic followed by 4 weeks of subject-blinded placebo treatment at home (subjects self-administered treatment as needed). Subjects who continued to qualify for the trial then received 2 single in-clinic doses of randomized treatment (double-blind; approximately one week apart), followed by 12 weeks of double-blind treatment at home (subjects self-administered treatment as needed).
# Subjects were randomized (1:1:1:1) to one of four study treatment groups (placebo or doses with 0.75, 1.25, or 1.75 mg net weight bremelanotide). Randomization occurred immediately prior to the first in-clinic dose of double-blind treatment. Study drug and placebo was provided as pre-filled syringes in 0.3 mL volume, with subjects instructed on self-administration into the anterior thigh or abdomen.
# Enrolled subjects were premenopausal women who met the diagnostic criteria for FSAD, HSDD, or mixed FSAD/HSDD, utilizing a diagnostic screening guide including categorization of the sexual dysfunction as both acquired (vs. lifelong) and generalized (vs. situational). Subjects enrolled had previously been sexually “functional;” that is, experienced sexual arousal during sexual activity and/or a normal level of desire at some point in the past for a period of at least 2 years.
# Enrolled subjects were provided with an electronic diary system (eDiary) with instructions to complete an FSEP-R questionnaire with each sexual encounter. At selected in-clinic visits, subjects completed other assessment questionnaires, including SIDI-F, FSDS-DAO, FSFI, GAQ and WITS-9. In addition, various vital sign measures were conducted and blood and urine samples collected at selected in-clinic visits.
# The measurement period was defined as the number of events during the last four weeks of treatment minus the number of events during the baseline period, with outcomes reported for pooled results of women taking the two highest bremelanotide dose levels versus placebo.
# The FSFI is a 19-item questionnaire which provides for an additional measurement of changes over a longer recall period. • FSFI total score improvement (mean change of 3.55 vs. 1.88, p=0.0017) • Reduced associated distress related to sexual dysfunction, as measured by the Female Sexual Distress Scale-DAO (FSDS-DAO). The FSDS-DAO 15-item questionnaire is designed to assess and quantify the change in personal distress associated with FSD. • FSDS-DAO total score improvement (mean change of −11.1 vs. −6.8, p=0.036).
# [2] = Example 1: pharmacokinetics after in-clinic subcutaneous dose; assay type: in vivo, human; details: for AUC(0-t) / Cmax: human, sc
# Description: Ambulatory blood pressure monitoring was conducted following both placebo and randomized treatment group in-clinic administrations. Three periods of ambulatory blood pressure monitoring were included, the first period was from before to 24 hours after a single, in-clinic dose of placebo (to establish a baseline); the second and third periods occurred from before to 24 hours after each of 2 single, in-clinic doses of double-blind treatment, administered within 14 days of each other. Blood samples for pharmacokinetic analysis were collected before and at 0.5, 1.0, and 2.0 hours after each in-clinic bremelanotide single-dose treatment (double-blind only), to permit analysis of concentration-response relationships.
# Mean pharmacokinetic parameters were determined by bremelanotide dose and visit, including Cmax determinations (the highest ng/mL concentration at either 0.5 or 1 hour post administration) and AUC determinations at two hours and, for a subset of subjects in each group, at four hours.
# The Cmax for the mean curve was calculated by averaging the concentrations at each time point (0.5, 1, 2 and 4 hours), and this is shown in FIG. 3.
# [3] = tested on: healthy adult female subjects; experiment: Phase 1 dose escalation, subcutaneous: vaginal photoplethysmography (vaginal pulse amplitude); assay type: in vivo, human
# Description: In a double-blind, placebo-controlled, single dose, dose escalation Phase 1 study to determine the maximum tolerated dose in healthy adult female subjects, doses of from 0.3 to 5.0 mg (0.3, 1.0, 3.0 and 5.0 mg) of bremelanotide were administered by subcutaneous injection. However, this study specifically excluded women with a diagnosis of FSD, and thus could not determine an effective dose for treatment of FSD. The study did employ a measure of pharmacodynamic effect, defined as an increase of sexual arousal response in the presence of visual sexual stimulation as measured by vaginal blood flow with vaginal photoplethysmography (using a Geer gauge device), which measures vaginal pulse amplitude.
# [4] = Pharmacokinetics of subcutaneous administration in healthy adult males; assay type: in vivo; details: male, human, plasma, sc, read-out: Median Tmax
# From the text: Results of Tmax values were compared between subcutaneous administration (SC) and intranasal (IN) administration of various doses of bremelanotide, as shown in FIG. 1.
# [5] = Single SC doses in male subjects with ED and preexisting hypertension: tolerability; assay type: in vivo, human; details: single subcutaneous doses of 4 and 6 mg
smiles,measurement,setting,value
"CCCC[C@H](NC(C)=O)C(=O)N[C@H]1CC(=O)NCCCC[C@@H](C(=O)O)NC(=O)[C@H](Cc2c[nH]c3ccccc23)NC(=O)[C@H](CCCNC(=N)N)NC(=O)[C@@H](Cc2ccccc2)NC(=O)[C@H](Cc2c[nH]cn2)NC1=O [bremelanotide, Ac-Nle-cyclo(-Asp-His-D-Phe-Arg-Trp-Lys)-OH]","Frequency of Satisfying Sexual Events (SSEs), mean at end of study","[1]; pooled 1.25 mg and 1.75 mg SC, from 1.6 at baseline, placebo 1.7 to 1.9",2.4
same,"FSFI total score improvement, mean change from baseline to end of study","[1]; pooled 1.25 mg and 1.75 mg SC, placebo 1.88",3.55
same,"FSDS-DAO total score improvement, mean change from baseline to end of study","[1]; pooled 1.25 mg and 1.75 mg SC, placebo −6.8",−11.1
same,Increase in SSEs,"[1]; pooled 1.25 mg and 1.75 mg SC, versus 12% with placebo",50%
same,Efficacy in premenopausal women with FSDs,[1]; self-administered at home at 1.25 and 1.75 mg SC,"effective in decreasing distress, increasing arousal and desire, and increasing the number of SSEs"
same,Percentage of women with end-of-study FSFI and FSDS-DAO total score levels above 26.5 and 18,"[1]; versus placebo, exploratory analysis",higher percentage
same,"Cmax, Max","[2]; 1.75 mg SC, Visit 5",115 ng/mL
same,"Cmax, Min","[2]; 1.75 mg SC, Visit 5",15 ng/mL
same,AUC(0-t),"[2]; blood, 0.75 mg, 0.75 mg SC, Visit 5, read-out: AUC(0-2h), Median",52 ng·h/mL
same,AUC(0-t),"[2]; blood, 0.75 mg, 0.75 mg SC, Visit 5, read-out: AUC(0-4h), Median",80 ng·h/mL
same,Cmax,"[2]; blood, 0.75 mg, 0.75 mg SC, Visit 5, read-out: Cmax, Median",36 ng/mL
same,AUC(0-t),"[2]; blood, 0.75 mg, 0.75 mg SC, Visit 7, read-out: AUC(0-2h), Mean",53 ng·h/mL
same,AUC(0-t),"[2]; blood, 0.75 mg, 0.75 mg SC, Visit 7, read-out: AUC(0-2h), Median",52 ng·h/mL
same,AUC(0-t),"[2]; blood, 0.75 mg, 0.75 mg SC, Visit 7, read-out: AUC(0-4h), Mean",80 ng·h/mL
same,AUC(0-t),"[2]; blood, 0.75 mg, 0.75 mg SC, Visit 7, read-out: AUC(0-4h), Median",79 ng·h/mL
same,Cmax,"[2]; blood, 0.75 mg, 0.75 mg SC, Visit 7, read-out: Cmax, Median",37 ng/mL
same,AUC(0-t),"[2]; blood, 1.25 mg, 1.25 mg SC, Visit 5, read-out: AUC(0-2h), Mean",86 ng·h/mL
same,AUC(0-t),"[2]; blood, 1.25 mg, 1.25 mg SC, Visit 5, read-out: AUC(0-2h), Median",81 ng·h/mL
same,AUC(0-t),"[2]; blood, 1.25 mg, 1.25 mg SC, Visit 5, read-out: AUC(0-4h), Mean",138 ng·h/mL
same,AUC(0-t),"[2]; blood, 1.25 mg, 1.25 mg SC, Visit 5, read-out: AUC(0-4h), Median",136 ng·h/mL
same,Cmax,"[2]; blood, 1.25 mg, 1.25 mg SC, Visit 5, read-out: Cmax, Mean",60 ng/mL
same,Cmax,"[2]; blood, 1.25 mg, 1.25 mg SC, Visit 5, read-out: Cmax, Median",56 ng/mL
same,AUC(0-t),"[2]; blood, 1.25 mg, 1.25 mg SC, Visit 7, read-out: AUC(0-2h), Mean",84 ng·h/mL
same,AUC(0-t),"[2]; blood, 1.25 mg, 1.25 mg SC, Visit 7, read-out: AUC(0-2h), Median",84 ng·h/mL
same,AUC(0-t),"[2]; blood, 1.25 mg, 1.25 mg SC, Visit 7, read-out: AUC(0-4h), Mean",142 ng·h/mL
same,AUC(0-t),"[2]; blood, 1.25 mg, 1.25 mg SC, Visit 7, read-out: AUC(0-4h), Median",144 ng·h/mL
same,Cmax,"[2]; blood, 1.25 mg, 1.25 mg SC, Visit 7, read-out: Cmax, Mean",60 ng/mL
same,Cmax,"[2]; blood, 1.25 mg, 1.25 mg SC, Visit 7, read-out: Cmax, Median",60 ng/mL
same,AUC(0-t),"[2]; in vivo, 0.75 mg, 0.75 mg SC, Visit 5, read-out: AUC(0-2h), Mean",53 ng·h/mL
same,AUC(0-t),"[2]; in vivo, 0.75 mg, 0.75 mg SC, Visit 5, read-out: AUC(0-4h), Mean",84 ng·h/mL
same,Cmax,"[2]; in vivo, 0.75 mg, 0.75 mg SC, Visit 5, read-out: Cmax, Mean",37 ng/mL
same,Cmax,"[2]; in vivo, 0.75 mg, 0.75 mg SC, Visit 7, read-out: Cmax, Mean",38 ng/mL
same,AUC(0-t),"[2]; in vivo, 1.75 mg, 1.75 mg SC, Visit 5, read-out: AUC(0-2h), Mean",112 ng·h/mL
same,AUC(0-t),"[2]; in vivo, 1.75 mg, 1.75 mg SC, Visit 5, read-out: AUC(0-2h), Median",112 ng·h/mL
same,AUC(0-t),"[2]; in vivo, 1.75 mg, 1.75 mg SC, Visit 5, read-out: AUC(0-4h), Mean",178 ng·h/mL
same,AUC(0-t),"[2]; in vivo, 1.75 mg, 1.75 mg SC, Visit 5, read-out: AUC(0-4h), Median",179 ng·h/mL
same,Cmax,"[2]; in vivo, 1.75 mg, 1.75 mg SC, Visit 5, read-out: Cmax, Mean",77 ng/mL
same,Cmax,"[2]; in vivo, 1.75 mg, 1.75 mg SC, Visit 5, read-out: Cmax, Median",78 ng/mL
same,AUC(0-t),"[2]; in vivo, 1.75 mg, 1.75 mg SC, Visit 7, read-out: AUC(0-2h), Mean",112 ng·h/mL
same,AUC(0-t),"[2]; in vivo, 1.75 mg, 1.75 mg SC, Visit 7, read-out: AUC(0-2h), Median",111 ng·h/mL
same,AUC(0-t),"[2]; in vivo, 1.75 mg, 1.75 mg SC, Visit 7, read-out: AUC(0-4h), Mean",184 ng·h/mL
same,AUC(0-t),"[2]; in vivo, 1.75 mg, 1.75 mg SC, Visit 7, read-out: AUC(0-4h), Median",180 ng·h/mL
same,Cmax,"[2]; in vivo, 1.75 mg, 1.75 mg SC, Visit 7, read-out: Cmax, Mean",78 ng/mL
same,Cmax,"[2]; in vivo, 1.75 mg, 1.75 mg SC, Visit 7, read-out: Cmax, Median",77 ng/mL
same,Cmax,"[2]; in vivo, 1.75 mg, 1.75 mg subcutaneous dose, Example 1, read-out: Cmax, maximum",115 ng/mL
same,Cmax,"[2]; in vivo, 1.75 mg, 1.75 mg subcutaneous dose, Example 1, read-out: Cmax, mean",77.2 ± 19.5 ng/mL
same,Cmax,"[2]; in vivo, 1.75 mg, 1.75 mg subcutaneous dose, Example 1, read-out: Cmax, median",78 ng/mL
same,Cmax,"[2]; in vivo, 1.75 mg, 1.75 mg subcutaneous dose, Example 1, read-out: Cmax, minimum",15 ng/mL
same,Pharmacodynamic effect (vaginal pulse amplitude with visual sexual stimulation),"[3]; 0.3 or 1.0 mg SC, compared to placebo or baseline",no apparent pharmacodynamic effect
same,Pharmacodynamic effect (vaginal pulse amplitude with visual sexual stimulation),[3]; 3 and 5 mg SC,statistically significant pharmacodynamic effect
same,Subcutaneous dose at which a pharmacodynamics effect was seen,[3]; normal female volunteers,≥ 3 mg
same,Tmax,[4],30 to 60 min
same,Tolerability,[5],improved tolerability
